Earlier results, collected in patent publication US7737133B2, “Formulations and methods of treating inflammatory bowel disease” (AGI Therapeutics Ltd., priority 2003, dated 2010).

Assays:
[1] = reportedly; Ginsberg et al.
[2] = compared with 5-ASA

| SMILES | nephrotoxicity [1] | aqueous stability [2] | systemic absorption of 5-ASA or its acetylated form (after cleavage of olsalazine in the colon) | absorbed intact from the gut (olsalazine, conventional powder capsule) |
| --- | --- | --- | --- | --- |
| Nc1ccc(C(=O)O)c(O)c1 [Example 4-ASA, 4-aminosalicylic acid] | absence of nephrotoxicity | higher aqueous stability |  |  |
| O=C(O)c1cc(N=Nc2ccc(O)c(C(=O)O)c2)ccc1O [olsalazine, 5,5′-azo-bis salicylic acid] |  |  | approximately 20% | 2.4% |
